Counter-ions that a name gives are not always drawn. One block for each compound: values may come before it. *1 amine or outer side, *2 acyl side, *3 side chain or, on linkers, in order; H or OH if unused. Where a SMILES comes first, the peptide text is derived from it. Bridges are numbered along the chain shown (N, C = ends). [ ]: non-standard residue; d: D form. The star is where a group is joined. ξ: configuration not given here. Achc(trans-4) = O=C([C@H]1CC[C@H](N[*:1])CC1)[*:2]; ξHexahydromandeloyl = O=C(C(O)C1CCCCC1)*; Thr(3ξ) = CC(O)[C@H](N)C(=O)O; Propanoyl(3-OH) = O=C(CCO)*; X5 = CC(C)[C@H](N)CCC(=O)*; Dab = NCC[C@H](N)C(=O)O; X4 = CN(C)CCCC(=O)*; X6 = O=C(CCCCCCCO)*; Ahx = NCCCCCC(=O)O; X3 = O=C(C1CCNC1)*
Columns and labels:
Experiment in all cases: MIC susceptibility testing, broth microdilution in CaMHB
[1] = test system: E. coli ATCC25922; type: cell-based, Escherichia coli
Protocol: (§1) To evaluate the potency and spectrum of the compounds, susceptibility testing was performed against four strains of each of the four Gram negative pathogens, Escherichia coli, Pseudomonas aeruginosa, Klebsiella pneumoniae and Acinetobacter baumannii.
(§2) The day before testing, 3 to 4 colonies were picked from fresh Mueller-Hinton Agar (MHA) plate and transferred into 10 mL of Cation adjusted MHB (CaMHB). Cultures were incubated at 37° C. 250 rpm for 18-20 hours before being diluted 100-fold in fresh CaMHB. The subcultures were grown further until the OD600 reached 0.2-0.3 corresponding to […]. The actively growing cultures were diluted 100-fold in fresh medium and used for the inoculum.
(§3) The assays were performed in duplicate.
(§4) Data was obtained under similar conditions to Table 4 except that different batches of cation-adjusted Muller-Hinton broth were used. The MIC values for these compounds are compared with those values obtained for Polymyxin B, Colistin Sulphate, CB-182,804 and NAB739 (as the TFA salt). CB-182,804 is a polymyxin decapeptide derivative with an aryl urea substituent at the N-terminus, which has been claimed to have lower toxicity than Polymyxin B (compound 5 in WO 2010/075416. See page 37). NAB739 has been described previously by Vaara et al.

[2] = test system: E. coli NCTC12900; type: cell-based, Escherichia coli
Protocol: as §1, §2, §3, §4

[3] = test system: E. coli NCTC9001; type: cell-based, Escherichia coli
Protocol: as §1, §2, §3, §4

[4] = test system: P. aeruginosa ATCC27853; type: cell-based, Pseudomonas aeruginosa
Protocol: as §1, §2, §3, §4

[5] = test system: P. aeruginosa ATCCCRM-9027; type: cell-based, Pseudomonas aeruginosa
Protocol: as §1, §2, §3, §4

[6] = test system: K. pneumoniae ATCC 4352; type: cell-based, Klebsiella pneumoniae
Protocol: as §1, §2, §3, §4

[7] = test system: K. pneumoniae ATCCBAA-1706; type: cell-based, Klebsiella pneumoniae
Protocol: as §1, §2, §3, §4

[8] = test system: K. pneumoniae NCTC7427; type: cell-based, Klebsiella pneumoniae
Protocol: as §1, §2, §3, §4

[9] = test system: K. pneumoniae NCTC8172; type: cell-based, Klebsiella pneumoniae
Protocol: as §1, §2, §3, §4

[10] = test system: A. baumannii ATCCBAA-747; type: cell-based, Acinetobacter baumannii
Protocol: as §1, §2, §3, §4

[11] = test system: A. baumannii NCTC13423; type: cell-based, Acinetobacter baumannii
Protocol: as §1, §2, §3, §4

[12] = test system: A. baumannii NCTC7844; type: cell-based, Acinetobacter baumannii
Protocol: as §1, §2, §3, §4

[13] = test system: P. aeruginosa ATCC 9721; type: cell-based, Pseudomonas aeruginosa
Protocol: as §1, §2, §3, §4

[14] = test system: P. aeruginosa ATCC10145; type: cell-based, Pseudomonas aeruginosa
Protocol: as §1, §2, §3, §4

[15] = test system: A. baumannii ATCC19606; type: cell-based, Acinetobacter baumannii
Protocol: as §1, §2, §3, §4

[16] = test system: E. coli ATCC700928; type: cell-based, Escherichia coli
Protocol: as §1, §2, §3, §4

[17] = P. aeruginosa ATCCCRM-9027, Table 4
[18] = K. pneumoniae ATCC 4352, Table 4
[19] = Table 4A, different batches of cation-adjusted Muller-Hinton broth
[20] = P. aeruginosa ATCC9721, Table 4A, different batches of cation-adjusted Muller-Hinton broth
[21] = P. aeruginosa AATCCRM 9027, Table 4A, different batches of cation-adjusted Muller-Hinton broth
[22] = K. pneumoniae ATCC4352, Table 4A, different batches of cation-adjusted Muller-Hinton broth

MIC [1, 19]: 8 micrograms/mL | MIC [16, 19]: 2 micrograms/mL | MIC [13, 20]: 0.25 micrograms/mL | MIC [14, 19]: 0.5 micrograms/mL | MIC [4, 19]: 0.125 micrograms/mL | MIC [5, 21]: 0.5 micrograms/mL | MIC [6, 22]: 0.5 micrograms/mL | MIC [8, 19]: 0.5 micrograms/mL | MIC [9, 19]: >32 micrograms/mL | MIC [15, 19]: 2 micrograms/mL | MIC [10, 19]: 1 micrograms/mL | MIC [11, 19]: 0.5 micrograms/mL | MIC [12, 19]: 2 micrograms/mL
SMILES: CC(C)C[C@@H]1NC(=O)[C@@H](Cc2ccccc2)NC(=O)[C@H](CCN)NC(=O)[C@@H](NC(=O)[C@H](CCN)NC(=O)[C@@H](NC(=O)CC[C@@H](N)C(C)C)C(C)O)CCNC(=O)[C@H](C(C)O)NC(=O)[C@H](CCN)NC(=O)[C@H](CCN)NC1=O (stereo partly drawn) [Example 29, 4-(R)-Amino-5-methylhexanoyl polymyxin B nonapeptide] (X5-[Thr(3ξ)][Dab][Dab][Dab][dF]L[Dab][Dab][Thr(3ξ)]; lactam 3-C)

MIC [1, 19]: 2 micrograms/mL | MIC [4, 19]: 0.125 micrograms/mL | MIC [6, 22]: 0.125 micrograms/mL | MIC [15, 19]: 2 micrograms/mL
SMILES: CC(C)C[C@@H]1NC(=O)[C@@H](Cc2ccccc2)NC(=O)[C@H](CCN)NC(=O)[C@@H](NC(=O)[C@H](CCN)NC(=O)[C@@H](NC(=O)[C@H]2CC[C@H](N)CC2)C(C)O)CCNC(=O)[C@H](C(C)O)NC(=O)[C@H](CCN)NC(=O)[C@H](CCN)NC1=O (stereo partly drawn) [Example 24, trans-4-aminocyclohexanecarbonyl polymyxin B nonapeptide] ({Achc(trans-4)}-[Thr(3ξ)][Dab][Dab][Dab][dF]L[Dab][Dab][Thr(3ξ)]; lactam 3-C)

MIC [1, 19]: >32 micrograms/mL | MIC [4, 19]: 0.5 micrograms/mL | MIC [6, 22]: 4 micrograms/mL | MIC [15, 19]: >32 micrograms/mL
SMILES: CC(C)C[C@@H]1NC(=O)[C@@H](Cc2ccccc2)NC(=O)[C@H](CCN)NC(=O)[C@@H](NC(=O)[C@H](CCN)NC(=O)[C@@H](NC(=O)CCO)C(C)O)CCNC(=O)[C@H](C(C)O)NC(=O)[C@H](CCN)NC(=O)[C@H](CCN)NC1=O (stereo partly drawn) [Example 33, 3-Hydroxypropanoyl polymyxin B nonapeptide] ({Propanoyl(3-OH)}-[Thr(3ξ)][Dab][Dab][Dab][dF]L[Dab][Dab][Thr(3ξ)]; lactam 3-C)

MIC ([1]; Table 4): 2 micrograms/mL | MIC ([16]; Table 4): 0.5 micrograms/mL | MIC ([3]; Table 4): 2 micrograms/mL | MIC ([14]; Table 4): 2 micrograms/mL | MIC ([4]; Table 4): 0.5 micrograms/mL | MIC [5, 17]: 0.25 micrograms/mL | MIC ([8]; Table 4): 1 micrograms/mL | MIC ([12]; Table 4): 16 micrograms/mL
SMILES: CC(C)C[C@@H]1NC(=O)[C@@H](Cc2ccccc2)NC(=O)[C@H](CCN)NC(=O)[C@@H](NC(=O)[C@H](CCN)NC(=O)[C@@H](NC(=O)CCCCCCCO)C(C)O)CCNC(=O)[C@H](C(C)O)NC(=O)[C@H](CCN)NC(=O)[C@H](CCN)NC1=O (stereo partly drawn) [Example 8, 8-Hydroxyoctanoyl Polymyxin B Nonapeptide, Sulphate Salt] (X6-[Thr(3ξ)][Dab][Dab][Dab][dF]L[Dab][Dab][Thr(3ξ)]; lactam 3-C)

More lines, now with the values behind:

SMILES: CC(C)C[C@@H]1NC(=O)[C@@H](Cc2ccccc2)NC(=O)[C@H](CCN)NC(=O)[C@@H](NC(=O)[C@H](CCN)NC(=O)[C@@H](NC(=O)CCCCCN)C(C)O)CCNC(=O)[C@H](C(C)O)NC(=O)[C@H](CCN)NC(=O)[C@H](CCN)NC1=O (stereo partly drawn) [Example 7, 6-Aminohexanoyl Polymyxin B Nonapeptide, Sulphate Salt] (H-[Ahx][Thr(3ξ)][Dab][Dab][Dab][dF]L[Dab][Dab][Thr(3ξ)]; lactam 4-C)
MIC ([1]; Table 4): 2 micrograms/mL | MIC ([2]; Table 4): 4 micrograms/mL | MIC ([3]; Table 4): 8 micrograms/mL | MIC ([4]; Table 4): 0.5 micrograms/mL | MIC [5, 17]: 0.25 micrograms/mL | MIC [6, 18]: 0.5 micrograms/mL | MIC ([7]; Table 4): 0.06 micrograms/mL | MIC ([8]; Table 4): 0.25 micrograms/mL | MIC ([9]; Table 4): >32 micrograms/mL | MIC ([10]; Table 4): 8 micrograms/mL | MIC ([11]; Table 4): 0.5 micrograms/mL | MIC ([12]; Table 4): 16 micrograms/mL

SMILES: CC(C)C[C@@H]1NC(=O)[C@@H](Cc2ccccc2)NC(=O)[C@H](CCN)NC(=O)[C@@H](NC(=O)[C@H](CCN)NC(=O)[C@@H](NC(=O)C(O)C2CCCCC2)C(C)O)CCNC(=O)[C@H](C(C)O)NC(=O)[C@H](CCN)NC(=O)[C@H](CCN)NC1=O (stereo partly drawn) [Example 34, 2-(R,S)-(2-Hydroxy-2-cyclohexyl) ethanoyl polymyxin B nonapeptide] (ξHexahydromandeloyl-[Thr(3ξ)][Dab][Dab][Dab][dF]L[Dab][Dab][Thr(3ξ)]; lactam 3-C)
MIC [1, 19]: 0.5 micrograms/mL | MIC [2, 19]: 8 micrograms/mL | MIC [3, 19]: 8 micrograms/mL | MIC [13, 20]: 0.25 micrograms/mL | MIC [14, 19]: 0.5 micrograms/mL | MIC [4, 19]: 0.125 micrograms/mL | MIC [5, 21]: 0.5 micrograms/mL | MIC [6, 22]: 1 micrograms/mL | MIC [8, 19]: 0.5 micrograms/mL | MIC [9, 19]: >32 micrograms/mL | MIC [15, 19]: 1 micrograms/mL | MIC [10, 19]: 1 micrograms/mL | MIC [11, 19]: 0.25 micrograms/mL | MIC [12, 19]: 2 micrograms/mL

SMILES: CC(C)C[C@@H]1NC(=O)[C@@H](Cc2ccccc2)NC(=O)[C@H](CCN)NC(=O)[C@@H](NC(=O)[C@H](CCN)NC(=O)[C@@H](NC(=O)CCCN(C)C)C(C)O)CCNC(=O)[C@H](C(C)O)NC(=O)[C@H](CCN)NC(=O)[C@H](CCN)NC1=O (stereo partly drawn) [Example 18, 4-(N,N-dimethylamino)-butanoyl polymyxin B nonapeptide] (X4-[Thr(3ξ)][Dab][Dab][Dab][dF]L[Dab][Dab][Thr(3ξ)]; lactam 3-C)
MIC [1, 19]: 0.5 micrograms/mL | MIC [16, 19]: 0.25 micrograms/mL | MIC [2, 19]: 4 micrograms/mL | MIC [14, 19]: 0.25 micrograms/mL | MIC [4, 19]: 0.125 micrograms/mL | MIC [5, 21]: 2 micrograms/mL | MIC [6, 22]: 0.5 micrograms/mL | MIC [7, 19]: 8 micrograms/mL | MIC [8, 19]: 0.125 micrograms/mL | MIC [9, 19]: >32 micrograms/mL | MIC [15, 19]: 1 micrograms/mL | MIC [10, 19]: 16 micrograms/mL | MIC [11, 19]: 4 micrograms/mL | MIC [12, 19]: 8 micrograms/mL

SMILES: CC(C)C[C@@H]1NC(=O)[C@@H](Cc2ccccc2)NC(=O)[C@H](CCN)NC(=O)[C@@H](NC(=O)[C@H](CCN)NC(=O)[C@@H](NC(=O)C2CCNC2)C(C)O)CCNC(=O)[C@H](C(C)O)NC(=O)[C@H](CCN)NC(=O)[C@H](CCN)NC1=O (stereo partly drawn) [Example 13, [3-(R,S)-Pyrrolidine-3-carbonyl] Polymyxin B Nonapeptide, Sulphate Salt] (X3-[Thr(3ξ)][Dab][Dab][Dab][dF]L[Dab][Dab][Thr(3ξ)]; lactam 3-C)
MIC ([1]; Table 4): 0.5 micrograms/mL | MIC ([16]; Table 4): 0.25 micrograms/mL | MIC ([2]; Table 4): 2 micrograms/mL | MIC ([13]; P. aeruginosa ATCC 9721, Table 4): 0.125 micrograms/mL | MIC ([14]; Table 4): 0.5 micrograms/mL | MIC ([4]; Table 4): 0.25 micrograms/mL | MIC [5, 17]: 2 micrograms/mL | MIC [6, 18]: 0.5 micrograms/mL | MIC ([7]; Table 4): 1 micrograms/mL | MIC ([8]; Table 4): 0.25 micrograms/mL | MIC ([9]; Table 4): 4 micrograms/mL | MIC ([15]; Table 4): 0.5 micrograms/mL | MIC ([10]; Table 4): 4 micrograms/mL | MIC ([11]; Table 4): 2 micrograms/mL | MIC ([12]; Table 4): 4 micrograms/mL

Reference: patent publication US9234006B2, “Compounds” (Novacta Biosystems Limited, priority 2011, dated 2016)
